We go through eleven compounds from ChEMBL document CHEMBL1201862, “PubChem BioAssay data set” (2004).

Test systems include HOP-92; OVCAR-5; HCC 2998; NCI-H23; UACC-257; U-251; NCI/ADR-RES; PC-3; HT-29; HL-60; SW-620; OVCAR-8; ACHN; COLO 205; SNB-19; NCI-H460; CCRF-CEM; A498; SK-MEL-2; NCI-H226.
Common to all, as to assay: NCI-60 cell line screen, 48 h

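Compound exposure: 48 hours, 5 concentrations, 96-well plates. Abbreviation: GI50, concentration required for 50% inhibition of growth.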 The source made the active and inactive calls. Cut-off read from the data, not from the text of the source: active = GI50 up to about 1.1 µM and inactive = higher. Some results are limits rather than exact numbers.

As to `OCCN1c2ccccc2Sc2ccccc21`, the GI50 with HOP-92, in the assay with OVCAR-5, with HCC 2998, with NCI-H23, in the assay with UACC-257 and with U-251 was > 10 µM (inactive) each time. Further, the GI50 with NCI/ADR-RES, in the assay with PC-3, in the assay on HT-29, with HL-60, with SW-620 and in the assay on OVCAR-8 was > 10 µM (inactive) in each case. In addition, the GI50 with ACHN, in the assay on COLO 205 and with SNB-19 was > 10 µM (inactive) each time.

Consider `O=C(C1C(c2ccccc2)N1C(c1ccccc1)c1ccccc1)C1C(c2ccccc2)N1C(c1ccccc1)c1ccccc1` (configuration not stated), for which the GI50 is 15.5 µM (inactive) with NCI-H460; 32.1 µM (inactive) with OVCAR-5; 17.7 µM (inactive) with HCC 2998; 18.5 µM (inactive) in the assay with UACC-257; 25.1 µM (inactive) in the assay on U-251; 27.4 µM (inactive) in the assay with NCI/ADR-RES. Besides, the GI50 in the assay with CCRF-CEM is 3.61 µM (inactive); with PC-3 it was 23.9 µM (inactive); with HT-29, 13.6 µM (inactive); in the assay with HL-60, 2.88 µM (inactive); in the assay on SW-620, 5.14 µM (inactive); in the assay with OVCAR-8, 29.6 µM (inactive). Moreover, the results for the GI50 in the assay on ACHN, in the assay with COLO 205 and in the assay on SNB-19 were > 10 µM (inactive), > 10 µM (inactive) and 97.5 µM (inactive), respectively.

As for `CC1(C)C=CC(=O)C(O)C(C)(C)C1=O` (configuration not stated), the GI50 is 92.7 µM (inactive) with HOP-92; > 100 µM (inactive) in the assay with A498; 29.7 µM (inactive) in the assay on NCI-H460; > 100 µM (inactive) in the assay with OVCAR-5; 76.7 µM (inactive) in the assay with NCI-H23; 18.8 µM (inactive) in the assay with UACC-257. Also, the GI50 was > 100 µM (inactive) in the assay on U-251; 72.4 µM (inactive) in the assay with NCI/ADR-RES; 0.13 µM (active) with CCRF-CEM; > 100 µM (inactive) in the assay on PC-3; > 100 µM (inactive) in the assay with SK-MEL-2; > 100 µM (inactive) with NCI-H226. The GI50 is 88.3 µM (inactive) with HT-29; 27.4 µM (inactive) in the assay on HL-60; 77.6 µM (inactive) in the assay on SW-620; 59 µM (inactive) in the assay on OVCAR-8; 98.4 µM (inactive) in the assay on ACHN; > 100 µM (inactive) in the assay with COLO 205. In addition, in the assay with SNB-19, the GI50 is > 100 µM (inactive).

`CCc1ccc(COC(=O)C2=C(C)NC(C)=C(C(=O)OCc3ccc(CC)cn3)C2C2=COCCO2)nc1`: the GI50 is 20.7 µM (inactive) with HOP-92; 31.5 µM (inactive) with NCI-H460; 28.1 µM (inactive) in the assay with OVCAR-5; 19.9 µM (inactive) in the assay with HCC 2998; 20 µM (inactive) with NCI-H23; 20.5 µM (inactive) with UACC-257. Besides, the GI50 in the assay on U-251 is 17.5 µM (inactive); in the assay on NCI/ADR-RES it was 22 µM (inactive); with CCRF-CEM, 16.2 µM (inactive); in the assay with PC-3, 16 µM (inactive); in the assay on NCI-H226, 16.2 µM (inactive); in the assay with HT-29, 21.4 µM (inactive). The GI50 is 22.4 µM (inactive) with HL-60; 27.8 µM (inactive) in the assay with SW-620; 32.9 µM (inactive) in the assay on OVCAR-8; 25.2 µM (inactive) with ACHN; 12.5 µM (inactive) in the assay on COLO 205; 18.8 µM (inactive) in the assay with SNB-19.

Take `CCOC(=O)c1c(-c2cccc(Cl)c2)c(C(=O)OC)c(C)c2sc(C=O)nc12`: the GI50 was 15.7 µM (inactive) in the assay with HOP-92; 19.5 µM (inactive) with NCI-H460; 17.5 µM (inactive) in the assay on OVCAR-5; 51.9 µM (inactive) with NCI-H23; 31.8 µM (inactive) with UACC-257; 17.7 µM (inactive) in the assay with U-251. Moreover, the GI50 with NCI/ADR-RES was 25.8 µM (inactive); in the assay with CCRF-CEM, 12.8 µM (inactive); with PC-3 it was 16.4 µM (inactive); in the assay with SK-MEL-2, 16.8 µM (inactive); with NCI-H226 it was 21.8 µM (inactive); with HT-29 it was 21 µM (inactive). Also, the GI50 in the assay with HL-60 was 17.7 µM (inactive); in the assay on SW-620, 48.4 µM (inactive); with OVCAR-8, 19.8 µM (inactive); in the assay on ACHN, 16.8 µM (inactive); in the assay on COLO 205, 17.5 µM (inactive); in the assay on SNB-19, 98.9 µM (inactive).

Take `CCOC(=O)CNC(=O)C(CSCc1ccc(Br)cc1)NC(=O)CCC(N)C(=O)OCC` (configuration not stated): the GI50 in the assay with HOP-92, with NCI-H460, in the assay with OVCAR-5, in the assay with HCC 2998, with NCI-H23 and with UACC-257 was > 50 µM (inactive) in each case. In addition, the GI50 with U-251, in the assay with NCI/ADR-RES, in the assay on CCRF-CEM, with PC-3, in the assay with SK-MEL-2 and in the assay with HT-29 was > 50 µM (inactive) throughout. The GI50 with SW-620, with OVCAR-8, in the assay on ACHN, in the assay on COLO 205 and in the assay with SNB-19 was > 50 µM (inactive) in each case.

In the case of `C[C@]12CC[C@H](O)CC1=CC[C@@H]1[C@@H]2CC[C@]2(C)C(=O)CC[C@@H]12` [PRASTERONE], the GI50 in the assay with OVCAR-5, with HCC 2998, with NCI-H23, in the assay with UACC-257, in the assay with U-251 and in the assay on NCI/ADR-RES was > 100 µM (inactive) each time. For the same compound, the GI50 in the assay on PC-3, with SK-MEL-2, with NCI-H226, in the assay on HT-29, in the assay with SW-620 and with OVCAR-8 was > 100 µM (inactive) each time. In addition, the GI50 with ACHN, in the assay with COLO 205 and in the assay on SNB-19 was > 100 µM (inactive) in each case.

`O=C1Nc2ccccc2C(=O)/C1=C/NC(=S)NCCc1ccccc1`: the GI50 in the assay on HOP-92, in the assay on NCI-H460, with OVCAR-5, with HCC 2998, with NCI-H23 and in the assay on UACC-257 was > 100 µM (inactive) in each case. Also, the GI50 with U-251 was > 100 µM (inactive); in the assay with NCI/ADR-RES it was > 100 µM (inactive); in the assay on PC-3 it was 98.4 µM (inactive); with SK-MEL-2, > 100 µM (inactive); with NCI-H226 it was > 100 µM (inactive); in the assay on HT-29, > 100 µM (inactive). For the same compound, the GI50 with HL-60, in the assay on SW-620, in the assay on OVCAR-8, in the assay on ACHN, in the assay on COLO 205 and in the assay with SNB-19 was > 100 µM (inactive) in each case.

Consider `COC(=O)[C@H](Cc1ccccc1)NP(=O)(O)OCC1C=CC(n2cc(C)c(=O)[nH]c2=O)O1` (some centres not stated), for which the GI50 in the assay on HOP-92, with NCI-H460, in the assay on OVCAR-5, with HCC 2998, with NCI-H23 and in the assay on UACC-257 was > 100 µM (inactive) each time. For the same compound, the GI50 in the assay on U-251, in the assay on NCI/ADR-RES, in the assay with CCRF-CEM, in the assay on PC-3, with SK-MEL-2 and with NCI-H226 was > 100 µM (inactive) throughout. Besides, the GI50 in the assay on HT-29 is > 100 µM (inactive); with HL-60, > 100 µM (inactive); with SW-620, > 100 µM (inactive); in the assay on OVCAR-8 it was > 100 µM (inactive); in the assay on ACHN, 26.3 µM (inactive); with COLO 205, > 100 µM (inactive). Further, in the assay with SNB-19, the GI50 was > 100 µM (inactive).

Take `O=S(=O)(O)c1ccc2cc(/N=N\c3cc(S(=O)(=O)O)c4cccnc4c3O)ccc2c1`: the GI50 with HOP-92, in the assay with A498, in the assay on NCI-H460, in the assay with OVCAR-5, in the assay with NCI-H23 and with UACC-257 was > 100 µM (inactive) each time. The GI50 in the assay with U-251 was > 100 µM (inactive); with NCI/ADR-RES, > 100 µM (inactive); in the assay with CCRF-CEM it was 29.7 µM (inactive); in the assay with PC-3, > 100 µM (inactive); with SK-MEL-2, > 100 µM (inactive); in the assay with NCI-H226, > 100 µM (inactive). Moreover, the GI50 was > 100 µM (inactive) in the assay on HT-29; 1.61 µM (inactive) in the assay with HL-60; > 100 µM (inactive) in the assay with SW-620; > 100 µM (inactive) in the assay with OVCAR-8; > 100 µM (inactive) in the assay on ACHN; > 100 µM (inactive) in the assay on COLO 205. Besides, in the assay with SNB-19, the GI50 was > 100 µM (inactive).

For `O=c1cc(N2CCCC2)[nH]c(=O)n1-c1ccccc1`, the GI50 was > 100 µM (inactive) in the assay with HOP-92; > 100 µM (inactive) in the assay on NCI-H460; > 100 µM (inactive) in the assay on OVCAR-5; 37 µM (inactive) in the assay on HCC 2998; > 100 µM (inactive) with NCI-H23; > 100 µM (inactive) in the assay on UACC-257. For the same compound, the GI50 in the assay on U-251, in the assay on NCI/ADR-RES, with CCRF-CEM, with PC-3, in the assay on SK-MEL-2 and in the assay with NCI-H226 was > 100 µM (inactive) throughout. Besides, the GI50 with HT-29, with HL-60, with SW-620, with OVCAR-8, in the assay with ACHN and in the assay with COLO 205 was > 100 µM (inactive) each time. For the same compound, in the assay with SNB-19, the GI50 was > 100 µM (inactive).
